Assay results: patent US5434188A, “1-ether and 1-thioether-naphthalene-2-carboxamides as inhibitors of cell adhesion and as inhibitors of the activation of HIV” (Warner-Lambert Company, priority 1994, dated 1995)

Tests used:
[1] = test system: HIV-1 activation in OM-10.1 cells; details: poster NCDDG/AIDS 1991; cited from earlier work
[2] = test system: CD4 down regulation and viral expression in HIV-infected cells; details: Hamamoto, et al. 1989; cited from earlier work
[3] = test system: HIV-1 activation in OM-10.1 cells; test: Inhibition of activation of latent HIV-1 in the OM-10.1 cell line (TNF-α induced); format: cell-based; details: Human immunodeficiency virus 1, read-out: OM-10n (IC50 μM)
Source text: The cellular pathways involved in mediating the activating signal from the plasma membrane to the integrated virus, resulting in HIV-1 expression, are much less clear. Recently, the development of a reliable and simple system for evaluating compounds that could prevent activation of latent HIV was reported at the National […] (NCDDG)/AIDS by P. Feorino, S. T. Butera, T. M. Folks, and R. F. Schinazi, Nov. 3-7, 1991. The assay system employed the OM-10.1 cell line, a unique chronically-infected promyelocytic clone which remains CD4+ until HIV-1 activation with tumor necrosis factor-α. The expression of CD4+ on the cell surface and the activity of reverse transcriptase are used as markers for quantitating viral expression. Alternatively, other HIV markers, such as protease activity, which are known to those of skill in the art can be used. OM-10.1 cells remain CD4^+ until viral activation and respond to tumor necrosis factor induction, and therefore, these cultures are used to conveniently and rapidly examine pharmacologics for an ability […] down modulation (decrease in expression of CD4^+ on the cell surface) and HIV-1 expression.
A variety of compounds known to have antiviral properties against either acutely or chronically infected cells were evaluated for their ability to inhibit HIV expression in these OM-10.1 cells. […]

[4] = test system: human neutrophil adhesion to TNF-α stimulated human umbilical vein endothelial cells; test: Modified method: inhibition of human neutrophil adhesion to TNF-α stimulated HUVEC (ECA), calcein-labeled neutrophils; format: cell-based; details: for inhibition at 100 µM / inhibition at 33 µM: Neutrophil, neutrophils labeled with calcein; for inhibition at 100 µM: footnote d: 100 μM; for inhibition at 33 µM: footnote c: 33 μM
Method: MODIFIED METHOD FOR DETERMINING THE INHIBITION OF HUMAN NEUTROPHIL ADHESION TO TNF-α STIMULATED HUMAN UMBILICAL VEIN ENDOTHELIAL CELLS
Second passage HUVEC (Clonetics Corporation, San Diego, Calif., CC-2617) were seeded into Corning (Corning glass works, Corning, N.Y.) 96-well cell culture plates at approximately 5×10^3 cells/well and grown to confluency in supplemented endothelial basal medium (EBM, MCDB-131, Clonetics, 10 ng/mL EGF, 1 μg/mL hydrocortisone, 0.4% bovine brain extract, 5% Fetal Bovine Serum). One day prior to running the assay, typically 3 days postseeding, the cultures were re-fed with 0.2 mL/well supplemented EBM (S-EBM).
Preparation of Test Compounds
Test compounds were prepared as 10 mL stock solutions at a concentration of 1.0 mM. The compound were initially solubilized in 0.1 mL DMSO followed by the addition of 9.9 mL S-EBM. The drug preparations were then diluted in one step to a concentration of 66.6 μM. Solubilizations and dilutions were performed in polystyrene containers.
Recombinant human tumor necrosis factor-α(TNF, Genzyme, Boston, Mass., code TNF-H) was prepared at 400 U/mL in S-EBM. Stock TNF was prepared to 20,000 U/mL in Delbecco's phosphate buffered saline (PBS, Gibco, Grand Island, N.Y.) plus 0.1% BSA and stored at -70° C. HUVEC were washed one time with 0.2 mL warm unsupplemented EBM and then stimulated for 4 hours at 37° C. with 200 U/mL TNF in the presence of 33.3 μM test compound. This was accomplished by adding 0.1 mL of 400 U/mL TNF and 0.1 mL 66.6 μM test compound. These additions were done slowly as to not disrupt the HUVEC monolayer. Each compound was tested in six wells. Unstimulated (Vehicle control) and TNF-stimulated without test compound treatments were also run in each plate.
One hour prior to adding the neutrophils to the HUVEC, neutrophils (5×10^6/ mL) were labeled for 30 minutes at 37° C. with 5 μM calcein-AM (Molecular Probes, Eugene, Oreg.) in Hanks' balanced salt solution plus 0.45% BSA. Stock calcein was prepared to 5 mM in anhydrous DMSO and stored desiccated at -20° C. At the end of the incubation the cells were washed two times in cold HBSS and resuspended to a final concentration of 1×10^6 cells/mL in unsupplemented EBM.
Addition of Neutrophils to HUVEC
At the end of the 4-hour stimulation and immediately prior to the addition of the neutrophils to the HUVEC monolayer, the plates were washed with 0.2 mL warm unsupplemented EBM to remove TNF and drug. Neutrophils (1×10^5 cells) were slowly added to each of the treated wells and incubated for 30 minutes at 37° C. At the end of the incubation the plates were washed two times with 0.2 mL warm unsupplemented EBM followed by a final addition of 0.1 mL for plate scanning.
Determination of Relative Fluorescence
The relative fluorescence was determined using a Millipore Cytofluor 2300 system (excitation=480, emission=530, sensitivity=4).
Results were expressed as means of percent inhibition of TNF-stimulated adherence, using the following equation: [formula]
Some of these compounds were tested at concentrations of 33.3 μM, 10.0 μM, 3.3 μM, and 1.0 μM to determine IC50 values. Linear regression analysis of the means of the inhibition values were used to determine the IC50.

E-selectin = test: ELISA of E-selectin on TNFα stimulated HUVEC; format: cell-based, human; details: second of the two values
Method: (§1) Murine monoclonal anti-human ICAM-1 (R & D Systems, Cat No. BBA-4) or murine monoclonal anti-human E-selectin (R & D, Cat No. BBA-2) dissolved in DMEM/2%BSA were added to each well at 0.5 μg/mL and allowed to incubate at 37° C. for 2 hours. HUVEC monocultures were then washed 4 times with DMEM/2%BSA. A peroxidase conjugated sheep anti-mouse IgG (Cappel) was added (1:3,000 dilution) and allowed to incubate 1 hour at 37° C. The cells were then washed 4 times with DMEM. A color reagent (Biorad) was added to the fixed cells and incubated 15 minutes at room temperature. The reaction was stopped with a 2% oxalic acid solution and the absorbance read at 414 nm on a titertek plate reader.
(§2) Compounds were dissolved in DMSO at a concentration of […] and diluted with media to obtain final testing concentrations. HUVECs received compound dissolved in media 30 minutes before the TNFα challenge. The absorbance of non-stimulated HUVECs was subtracted from the absorbance values of TNFα stimulated cells before percent inhibition was determined. Percent inhibition was determined by comparing the absorbance of vehicle treated cells with drug treated cells. IC50 s were determined using linear regression analysis.

ICAM-1 = test: ELISA of ICAM-1 on TNFα stimulated HUVEC; format: cell-based, human; details: first of the two values
Method: as §1, §2

[5] = test system: human neutrophil adhesion to TNF-α, IL-α, and LPS-stimulated human umbilical vein endothelial cells; test: Inhibition of human neutrophil adhesion to stimulated human umbilical vein endothelial cells (ECA), 51Cr-labeled neutrophils; format: cell-based; details: footnote b: 100 μM, neutrophils labeled with Cr
Source text: METHOD FOR DETERMINING THE INHIBITION OF HUMAN NEUTROPHIL ADHESION TO TNF-α, IL-α, AND LPS-STIMULATED HUMAN UMBILICAL VEIN ENDOTHELIAL CELLS (ECA)
Neutrophils were isolated from anticoagulant-treated venous blood obtained from healthy human volunteers according to the method of Ferrante and Thong (J. Immunol. Methods 24:389-393 (1978)). The cell preparations consisted of greater than 98% neutrophils.
Second passage human umbilical vein endothelial cells (HUVEC) (Clonetics, San Diego, Calif.) were seeded into Falcon 24-well cell culture plates (Becton Dickinson, Lincoln Park, N.J.) at approximately 2×10^4 cells per well. The cells were grown to confluent monolayers in endothelial basal medium (EBM, Clonetics) supplemented with 5% fetal calf serum (Hyclone Laboratories, Logan, Utah), 10 ng/mL EGF, 1 μg/mL hydrocortisone, 0.4% bovine brain extract (Clonetics) in 5% CO2 at 37° C. […]
Stimulation of HUVEC with tumor necrosis factor-α (TNF-α) (Genzyme, Cambridge, Mass.), interleukin (IL-1α) (Genzyme) or E. coli 0111:B4 lipopolysaccharide (LPS) (Sigma) in the presence or absence of drug was initiated 4 hours prior to the addition of neutrophils. […] Lysates were collected and the radioactivity in each well was determined by gamma ray spectroscopy. […]

Question: With `Cc1cn([C@H]2C[C@H](F)[C@@H](CO)O2)c(=O)[nH]c1=O` [3'-fluoro-3'-deoxythymidine (FLT), 3'-fluoro-3'-deoxythymidine] as the compound, how does the “inhibition of HIV-1 activation, in words” value [1] read?
Answer: The value was “modest inhibitors of the activation of HIV-1”.

Question: Which “effect on CD4 down regulation and HIV expression, in words” value [2] does the source give for `CCCCCCCCCCCCCC(=O)O[C@@H]1[C@@H](C)[C@@]2(O)[C@@H](C=C(CO)C[C@]3(O)C(=O)C(C)=C[C@@H]23)[C@@H]2C(C)(C)[C@]12OC(C)=O` [12-0-tetradecanoylphorbol-13-acetate] here?
Answer: Its value is “mediates CD4 down regulation and viral expression in HIV-infected cells”.

Question: For `COc1ccc2ccc(C(N)=O)c(OC(C)C)c2c1` [Example 1, 7-Methoxy-1-(1-methylethoxy)-2-naphthalenecarboxamide], which IC50 [3] is on record?
Answer: Its IC50 is 2.5 µM.

Question: And the IC50 ([4]; footnote a, neutrophil adhesion to stimulated HUVEC, neutrophil label not given)?
Answer: Its IC50 is 11 µM.

Question: What about the “ICAM/ESEL % Inhib @ 30 μM: ESEL” value (E-selectin) of the same compound?
Answer: The value was 84%.

Question: What about the “ICAM/ESEL % Inhib @ 30 μM: ICAM” value (ICAM-1) of the same compound?
Answer: The value was 77%.

Question: With `CCNC(=O)c1ccc2ccc(OC)cc2c1OC(C)C` [Example 2, N-Ethyl-7-methoxy-1-(1-methylethoxy)-2-naphthalenecarboxamide] as the compound, how does the inhibition at 100 µM [4] read?
Answer: The inhibition at 100 µM was 73%.

Question: With `COc1ccc2ccc(C(=O)NC(C)C)c(OC(C)C)c2c1` [Example 3, 7-Methoxy-1-(1-methylethoxy)-N-(1-methylethyl)-2-naphthalenecarboxamide] as the compound, how does the inhibition at 33 µM [4] read?
Answer: Its inhibition at 33 µM is 64%.

Question: With `COc1ccc2ccc(C(=O)NCc3ccccc3)c(OC(C)C)c2c1` [Example 4, 7-Methoxy-1-(1-methylethoxy)-N-(phenylmethyl)-2-naphthalenecarboxamide] as the compound, how does the inhibition at 100 µM [4] read?
Answer: Its inhibition at 100 µM is 14%.

Question: Which IC50 [3] does the source give for `CC(C)Oc1ccc2ccc(C(N)=O)c(OC(C)C)c2c1` [Example 5, 1,7-Bis-(1-methylethoxy)-2-naphthalenecarboxamide] here?
Answer: Its IC50 is 0.5 µM.

Question: What about the inhibition at 100 µM [5] of the same compound?
Answer: Its inhibition at 100 µM is 45%.

Question: Which inhibition at 33 µM [4] does the source give for `COc1ccc2c(OC(C)C)c(C(N)=O)ccc2c1` [Example 6, 6-Methoxy-1-(1-methylethoxy)-2-naphthalenecarboxamide] here?
Answer: The inhibition at 33 µM was 9%.

Question: With `COc1ccc2ccc(C(N)=O)c(OC)c2c1` [Example 7, 1,7-Dimethoxy-2-naphthalenecarboximide] as the compound, how does the inhibition at 33 µM [4] read?
Answer: Its inhibition at 33 µM is 15%.

Question: With `CN[C@@H]1C[C@H]2O[C@@](C)([C@@H]1OC)n1c3ccccc3c3c4c(c5c6ccccc6n2c5c31)C(=O)NC4` [Staurosporine, staurosporine] as the compound, how does the “effect on CD4 down regulation and HIV expression, in words” value [2] read?
Answer: The value was “effective TPA inhibitor for both of these actions”.

Question: With `CC(=O)N(O)CCCCCNC(=O)CCC(=O)N(O)CCCCCNC(=O)CCC(=O)N(O)CCCCCN` [desferrioxamine] as the compound, how does the “inhibition of HIV-1 activation, in words” value [1] read?
Answer: The value was “modest inhibitors of the activation of HIV-1”.

Question: With “interferon Y: modest inhibitor of the activation of HIV-1” as the compound, how does the “inhibition of HIV-1 activation, in words” value [1] read?
Answer: The value was “modest inhibitors of the activation of HIV-1”.
